Test results taken from PubChem BioAssay (NCI).
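The compound was tested at five concentrations on cells cultured in 96-well plates, with a 48-hour exposure period. TGI: concentration producing complete growth inhibition.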

What was measured:
Assay in all cases: NCI-60 cell line screen, 48 h
A549 NSCLC = test system: A549 NSCLC
ACHN renal = test system: ACHN renal
CAKI-1 renal = test system: CAKI-1 renal
CCRF-CEM leukemia = test system: CCRF-CEM leukemia
COLO 205 colon = test system: COLO 205 colon
DMS 114 small cell lung = test system: DMS 114 small cell lung
DMS 273 small cell lung = test system: DMS 273 small cell lung
EKVX NSCLC = test system: EKVX NSCLC
HCC-2998 colon = test system: HCC-2998 colon
HCT-116 colon = test system: HCT-116 colon
HCT-15 colon = test system: HCT-15 colon
HL-60(TB) leukemia = test system: HL-60(TB) leukemia
HOP-18 NSCLC = test system: HOP-18 NSCLC
HOP-62 NSCLC = test system: HOP-62 NSCLC
HT29 colon = test system: HT29 colon
IGROV1 ovarian = test system: IGROV1 ovarian
K-562 leukemia = test system: K-562 leukemia
KM12 colon = test system: KM12 colon
KM20L2 colon = test system: KM20L2 colon
LOX IMVI melanoma = test system: LOX IMVI melanoma
LXFL 529 NSCLC = test system: LXFL 529 NSCLC
M14 melanoma = test system: M14 melanoma
M19-MEL melanoma = test system: M19-MEL melanoma
MALME-3M melanoma = test system: MALME-3M melanoma
MOLT-4 leukemia = test system: MOLT-4 leukemia
NCI-H226 lung = test system: NCI-H226 lung
NCI-H23 lung = test system: NCI-H23 lung
NCI-H460 lung = test system: NCI-H460 lung
NCI-H522 lung = test system: NCI-H522 lung
OVCAR-3 ovarian = test system: OVCAR-3 ovarian
OVCAR-4 ovarian = test system: OVCAR-4 ovarian
OVCAR-5 ovarian = test system: OVCAR-5 ovarian
OVCAR-8 ovarian = test system: OVCAR-8 ovarian
RPMI-8226 leukemia = test system: RPMI-8226 leukemia
RXF 393 renal = test system: RXF 393 renal
SF-268 CNS = test system: SF-268 CNS
SF-539 CNS = test system: SF-539 CNS
SK-MEL-2 melanoma = test system: SK-MEL-2 melanoma
SK-MEL-28 melanoma = test system: SK-MEL-28 melanoma
SK-MEL-5 melanoma = test system: SK-MEL-5 melanoma
SK-OV-3 ovarian = test system: SK-OV-3 ovarian
SN12C renal = test system: SN12C renal
SNB-19 CNS = test system: SNB-19 CNS
SR leukemia = test system: SR leukemia
SW-620 colon = test system: SW-620 colon
TK-10 renal = test system: TK-10 renal
U251 CNS = test system: U251 CNS
UACC-62 melanoma = test system: UACC-62 melanoma
UO-31 renal = test system: UO-31 renal
XF 498 CNS = test system: XF 498 CNS
786-0 renal = test system: 786-0 renal
A498 renal = test system: A498 renal
BT-549 breast = test system: BT-549 breast
DU-145 prostate = test system: DU-145 prostate
HOP-92 NSCLC = test system: HOP-92 NSCLC
HS 578T breast = test system: HS 578T breast
MCF7 breast = test system: MCF7 breast
MDA-MB-231 breast = test system: MDA-MB-231 breast
MDA-MB-435 = test system: MDA-MB-435
MDA-N = test system: MDA-N
NCI/ADR-RES ovarian = test system: NCI/ADR-RES ovarian
PC-3 prostate = test system: PC-3 prostate
SF-295 CNS = test system: SF-295 CNS
SNB-75 CNS = test system: SNB-75 CNS
T-47D breast = test system: T-47D breast
UACC-257 melanoma = test system: UACC-257 melanoma
DLD-1 colon = test system: DLD-1 colon
SNB-78 CNS = test system: SNB-78 CNS

Structure (SMILES): CC1(C)Cc2c(C#N)c(N)c3c(c2CO1)C(=O)OC3=O
- TGI (A549 NSCLC): > 100 µM
- TGI (ACHN renal): > 100 µM
- TGI (CAKI-1 renal): > 100 µM
- TGI (CCRF-CEM leukemia): > 100 µM
- TGI (COLO 205 colon): > 100 µM
- TGI (DMS 114 small cell lung): > 100 µM
- TGI (DMS 273 small cell lung): > 100 µM
- TGI (EKVX NSCLC): > 100 µM
- TGI (HCC-2998 colon): > 100 µM
- TGI (HCT-116 colon): > 100 µM
- TGI (HCT-15 colon): > 100 µM
- TGI (HL-60(TB) leukemia): > 100 µM
- TGI (HOP-18 NSCLC): > 100 µM
- TGI (HOP-62 NSCLC): > 100 µM
- TGI (HT29 colon): > 100 µM
- TGI (IGROV1 ovarian): > 100 µM
- TGI (K-562 leukemia): > 100 µM
- TGI (KM12 colon): > 100 µM
- TGI (KM20L2 colon): > 100 µM
- TGI (LOX IMVI melanoma): > 100 µM
- TGI (LXFL 529 NSCLC): > 100 µM
- TGI (M14 melanoma): > 100 µM
- TGI (M19-MEL melanoma): > 100 µM
- TGI (MALME-3M melanoma): > 100 µM
- TGI (MOLT-4 leukemia): > 100 µM
- TGI (NCI-H226 lung): > 100 µM
- TGI (NCI-H23 lung): > 100 µM
- TGI (NCI-H460 lung): > 100 µM
- TGI (NCI-H522 lung): > 100 µM
- TGI (OVCAR-3 ovarian): > 100 µM
- TGI (OVCAR-4 ovarian): > 100 µM
- TGI (OVCAR-5 ovarian): > 100 µM
- TGI (OVCAR-8 ovarian): > 100 µM
- TGI (RPMI-8226 leukemia): > 100 µM
- TGI (RXF 393 renal): > 100 µM
- TGI (SF-268 CNS): > 100 µM
- TGI (SF-539 CNS): > 100 µM
- TGI (SK-MEL-2 melanoma): > 100 µM
- TGI (SK-MEL-28 melanoma): > 100 µM
- TGI (SK-MEL-5 melanoma): > 100 µM
- TGI (SK-OV-3 ovarian): > 100 µM
- TGI (SN12C renal): > 100 µM
- TGI (SNB-19 CNS): > 100 µM
- TGI (SR leukemia): > 100 µM
- TGI (SW-620 colon): > 100 µM
- TGI (TK-10 renal): > 100 µM
- TGI (U251 CNS): > 100 µM
- TGI (UACC-62 melanoma): > 100 µM
- TGI (UO-31 renal): > 100 µM
- TGI (XF 498 CNS): > 100 µM

Structure (SMILES): C[C@]12CC[C@H](O)C[C@H]1CC[C@@H]1[C@@H]2CC[C@]2(C)[C@@H](C3=CC(=O)OC3)[C@@H](O)C[C@]12O
- TGI (786-0 renal): 2.36 µM
- TGI (A498 renal): 9.07 µM
- TGI (A549 NSCLC): 1.65 µM
- TGI (ACHN renal): 1.82 µM
- TGI (BT-549 breast): 7.32 µM
- TGI (CAKI-1 renal): 3.15 µM
- TGI (CCRF-CEM leukemia): 2.42 µM
- TGI (COLO 205 colon): 7.18 µM
- TGI (DU-145 prostate): 2.71 µM
- TGI (EKVX NSCLC): 2.78 µM
- TGI (HCC-2998 colon): 6.7 µM
- TGI (HCT-116 colon): 4.37 µM
- TGI (HCT-15 colon): 7.21 µM
- TGI (HL-60(TB) leukemia): 3.45 µM
- TGI (HOP-62 NSCLC): 2.48 µM
- TGI (HOP-92 NSCLC): > 100 µM
- TGI (HS 578T breast): > 21.8 µM
- TGI (HT29 colon): 11 µM
- TGI (IGROV1 ovarian): 37.3 µM
- TGI (K-562 leukemia): > 52.2 µM
- TGI (KM12 colon): 18.2 µM
- TGI (LOX IMVI melanoma): 12 µM
- TGI (M14 melanoma): 5.58 µM
- TGI (MALME-3M melanoma): 4.23 µM
- TGI (MCF7 breast): 11.1 µM
- TGI (MDA-MB-231 breast): 20.1 µM
- TGI (MDA-MB-435): 10.3 µM
- TGI (MDA-N): 5.7 µM
- TGI (MOLT-4 leukemia): 1.95 µM
- TGI (NCI-H226 lung): 9.8 µM
- TGI (NCI-H23 lung): 2.47 µM
- TGI (NCI-H460 lung): 1.72 µM
- TGI (NCI-H522 lung): 2.67 µM
- TGI (NCI/ADR-RES ovarian): 3.9 µM
- TGI (OVCAR-3 ovarian): 1.73 µM
- TGI (OVCAR-4 ovarian): 3.16 µM
- TGI (OVCAR-5 ovarian): 8.03 µM
- TGI (OVCAR-8 ovarian): 14.6 µM
- TGI (PC-3 prostate): 3.1 µM
- TGI (RPMI-8226 leukemia): 8.07 µM
- TGI (RXF 393 renal): 3.51 µM
- TGI (SF-268 CNS): 2.55 µM
- TGI (SF-295 CNS): 10.9 µM
- TGI (SF-539 CNS): 2.28 µM
- TGI (SK-MEL-2 melanoma): 5.02 µM
- TGI (SK-MEL-28 melanoma): 25.6 µM
- TGI (SK-MEL-5 melanoma): 3.2 µM
- TGI (SK-OV-3 ovarian): 6.73 µM
- TGI (SN12C renal): 3.25 µM
- TGI (SNB-19 CNS): 15.5 µM
- TGI (SNB-75 CNS): 16.7 µM
- TGI (SR leukemia): 3.63 µM
- TGI (SW-620 colon): 14.6 µM
- TGI (T-47D breast): > 40.7 µM
- TGI (TK-10 renal): 1.99 µM
- TGI (U251 CNS): 5.08 µM
- TGI (UACC-257 melanoma): 5.46 µM
- TGI (UACC-62 melanoma): 6.82 µM
- TGI (UO-31 renal): 2.26 µM

Structure (SMILES): COC1C=COC2(C)Oc3c(C)c(O)c4c(O)c(c(/C=N/N5CCN(N)CC5)c(O)c4c3C2=O)NC(=O)C(C)=CC=CC(C)C(O)C(C)C(O)C(C)C(OC(C)=O)C1C (stereo not drawn)
- TGI (786-0 renal): > 100 µM
- TGI (A498 renal): > 100 µM
- TGI (A549 NSCLC): > 100 µM
- TGI (ACHN renal): > 100 µM
- TGI (CAKI-1 renal): > 100 µM
- TGI (CCRF-CEM leukemia): 47.9 µM
- TGI (COLO 205 colon): > 100 µM
- TGI (DLD-1 colon): > 100 µM
- TGI (DMS 114 small cell lung): > 100 µM
- TGI (DMS 273 small cell lung): > 100 µM
- TGI (EKVX NSCLC): > 100 µM
- TGI (HCC-2998 colon): > 100 µM
- TGI (HCT-116 colon): 80.7 µM
- TGI (HCT-15 colon): > 100 µM
- TGI (HL-60(TB) leukemia): > 100 µM
- TGI (HOP-62 NSCLC): > 100 µM
- TGI (HOP-92 NSCLC): > 100 µM
- TGI (HT29 colon): > 100 µM
- TGI (IGROV1 ovarian): > 100 µM
- TGI (K-562 leukemia): > 100 µM
- TGI (KM12 colon): > 100 µM
- TGI (KM20L2 colon): > 100 µM
- TGI (LOX IMVI melanoma): > 100 µM
- TGI (LXFL 529 NSCLC): > 100 µM
- TGI (M14 melanoma): > 100 µM
- TGI (M19-MEL melanoma): > 100 µM
- TGI (MALME-3M melanoma): > 100 µM
- TGI (MOLT-4 leukemia): > 100 µM
- TGI (NCI-H226 lung): > 100 µM
- TGI (NCI-H23 lung): > 100 µM
- TGI (NCI-H522 lung): 78.2 µM
- TGI (OVCAR-4 ovarian): > 100 µM
- TGI (OVCAR-5 ovarian): > 100 µM
- TGI (OVCAR-8 ovarian): > 100 µM
- TGI (RPMI-8226 leukemia): 88.8 µM
- TGI (RXF 393 renal): > 100 µM
- TGI (SF-268 CNS): > 100 µM
- TGI (SF-295 CNS): > 100 µM
- TGI (SF-539 CNS): > 100 µM
- TGI (SK-MEL-2 melanoma): > 100 µM
- TGI (SK-MEL-28 melanoma): > 100 µM
- TGI (SK-MEL-5 melanoma): > 100 µM
- TGI (SK-OV-3 ovarian): > 100 µM
- TGI (SN12C renal): > 100 µM
- TGI (SNB-19 CNS): > 100 µM
- TGI (SNB-75 CNS): > 100 µM
- TGI (SNB-78 CNS): > 100 µM
- TGI (SR leukemia): > 100 µM
- TGI (SW-620 colon): > 100 µM
- TGI (TK-10 renal): > 100 µM
- TGI (U251 CNS): > 100 µM
- TGI (UACC-257 melanoma): > 100 µM
- TGI (UACC-62 melanoma): > 100 µM
- TGI (UO-31 renal): > 100 µM
